# Measurements from patent US20180353524A1, “CANCER TREATMENT USING 2-DEOXY-2-FLUORO-L-FUCOSE IN COMBINATION WITH A CHECKPOINT INHIBITOR” (SEATTLE GENETICS, INC., priority 2015, published 2018).
# Columns and labels:
# [1] = tested on: 4T1 cells; test: 4T1 mouse tumor study, tumor infiltrating immune cells; assay type: in vivo, balb/c mice; conditions: 4T1 tumors, 20 mM in drinking water
# Experimental: To evaluate the effect of 2FF treatment on tumor infiltrating immune cells balb/c mice were implanted with 4T1 cells (2×10^4 injected sc.) and on the same day started on 20 mM 2FF drinking water. On day 19 (when tumors were approximately ˜250-300 mm^3) or day 28 (when tumors were ˜800-1000 mm^3) tumors were removed, finely minced with a razor blade and suspend in 5 mL cold disassociation buffer (DMEM (high glucose) media, 5% FBS, 1 M HEPES, 2 mg/mL collagenase D (Roche), 0.1 mg/mL DNAse I (50 mg/mL stock in 20 mM Tris-HCL (ph7.5), 1 mM MgCl2, 50% glycerol) and transferred to a Miltenyi C-tube. GentleMACS was run on each tube and the tubes incubated at 37° C. for 40 minutes with continuous rotation. GentleMACS was then run twice and the tubes quickly spun down to collect the tumor in the bottom of the tube. The tube contents was then passed through a 70 μm mesh filter into a 50 mL falcon tube using the rubber stopper of a syringe to gently dissociate the tissue. The filter was washed with 5 mL of cold enzyme inhibitor buffer (DMEM (high glucose), 0.25 M EDTA) and the tube spun down, supernatant discarded and the samples re-suspend in PBS. Cells were then stained with eFluor®506 viability dye (eBioscience) following the manufactures instructions. Cells were washed twice in FACS staining buffer (0.5% FBS, 0.05% NaN3) and immune phenotyped with three different panels of antibodies, each containing an antibody against CD45 to identify immune cells. The cells phenotyped for dendritic cell antigens were stained with the desired antiboides for 30 minutes in the dark on ice, washed twice in staining buffer and resuspended in 1:4 PBS:fixation buffer (Biolgend) and stored at 4° C. overnight. The following day cells were washed in FACS stain buffer and analyzed on the LSRII flow cytometer. The cells phenotyped for T regulatory cells were first stained with the desired antibodies against cell surface antigens for 30 minutes in the dark on ice. […]
# [2] = tested on: ZAP70; test: TCR signaling, pZAP70 western blot in CD3/CD28 activated T-cells; assay type: cell-based, human; conditions: CD3/CD28 bead activation 0-4 h, pZAP70 normalized to ZAP70
# Experimental: Purified T-cells were plated in 6-well plates (2.5×10^6 cells/well, 2.5 mL T-cell medium) and were activated with CD3/CD28 beads (20 μL beads/well, Miltenyi Biotec, San Diego, Calif.) at 37 ° C. for 0-4 h. At the indicated time, samples were then harvested, washed in PBS, lysed with RIPA buffer (Thermo Scientific, containing DNAse and protease/phosphatase inhibitors), and snap frozen on dry ice followed by storage at −80 ° C. Cell lysates (˜3 μg/sample determined by BCA assay) were run on SDS-PAGE and examined by western blot on nitrocellulose membranes with anti-pZAP70 antibody (Cell Signaling Technologies). Briefly, blots were blocked for 1 h at room temperature in 5% milk in TBST (TBST from Cell Signling Technologies), rinsed with TBST and then incubated with primary antibody (anti-pZAP70 1:1000 in 5% BSA in TBST) at 4 ° C. overnight. Blots were washed 3× with TBST and probed with HRP-conjugated secondary antibodies for 1 hr at RT (1:2000 in 5% non-fat milk in TBST) followed by washing (3×TBST) and detection using Cell Signaling Elite ECL as per manufacturer instructions. Blots were scanned using an Amersham™ 600 imager (GE Healthcare). Once imaged, blots could be stripped and reprobed for additional markers using other primary antibodies. […]
# [3] = tested on: A20 tumor cells; test: A20 mouse lymphoma study, survival; assay type: in vivo, BALB/c mice
# Experimental: A20 cells (ATCC) were cultured in RPMI 1640 with 10% FBS, 10 mM HEPES, 1 mM sodium pyruvate, 50 μM 2-mercaptoethanol and penicillin (100 U/ml)/streptomycin (100 μg/ml) (PS). All mice (BALB/c, n=6/group) were implanted with 1×10^5 A20 tumor cells (i.v.) and were divided into four groups: untreated; treated with 2FF only; treated with anti-PD1 antibody only; and treated with a combination of 2FF with anti-PD1 antibody. 2FF treatment groups received drinking water containing 20 mM 2FF beginning on the day of tumor implantand continued throughout the study. Mice not receiving 2FF were provided with normal drinking water. Anti-PD1 antibody (Ebiosciences, clone J43) treatment groups received three doses of 5 mg/kg every three days starting on day 5 post tumor implant. […] This is compared to only 17% survival in the untreated and the anti-PD1 alone treated groups after about 40 days of treatment lasting to the end of the experiment, and also compared to only 17% survival in 2FF alone treated group after 70 days of treatment also lasting to the end of the experiment at ˜90 days.
# [4] = tested on: SMAD2; test: TGFβ signaling, pSMAD2 western blot in T-cells; assay type: cell-based, human; conditions: TGFβ 5 ng/mL for 10 min after 6 h serum starvation
# Experimental: Cells were plated in 6-well dishes (2.5×10^6 cells/well) with serum-free RPMI medium (1% PS, 2.5 mL) and after 6 h of serum starvation, cells were stimulated with TGFβ (5 ng/mL) for 10 min. The cells were harvested, washed twice in PBS, and snap frozen on dry ice followed by storage at −80 ° C. Cells were lysed with RIPA buffer (containing DNAse and protease/phosphatase inhibitors). As described previously, cell lysates were run on SDS-PAGE and examined by western blot on nitrocellulose membranes with anti-pSMAD2 and anti-actin antibodies.
structure (smiles),measurement,setting,value
C[C@@H]1OC(O)[C@@H](F)[C@H](O)[C@@H]1O (stereo partly drawn) [2-deoxy-2-fluoro-L-fucose],T regulatory cells in tumor,[1]; day 19 after implantation,significantly decreased T regulatory cells
same,dendritic cells in tumor,[1]; day 19 after implantation,increased dendritic cells which are more activated
same,memory and effector T cells in tumor,[1]; day 28 after implantation,increased memory and effector T cells
same,Zap70 phosphorylation in treated T-cells compared to naive cells,[2],significantly more phosphorylated and remains phosphorylated for a longer period of time
same,survival compared to the untreated group,"[3]; BALB/c mice, i.v. A20 cells, 20 mM 2FF in drinking water, anti-PD1 5 mg/kg q3dx3 from day 5",increased survival compared to the untreated group
same,survival of the mice,"[3]; after 70 days of treatment lasting to end of experiment at ~90 days, 20 mM 2FF drinking water",17%
same,SMAD2 phosphorylation following TGFβ stimulation vs control T-cells,[4],reduced SMAD2 phosphorylation
